Test results taken from US7326721B2 (Hypnion, Inc., priority 2003, dated 2008).
Read-outs that look alike come from different tables or passages of the source.

What was measured:
[1] = system: Calcium Channel, Type L (Dihydropyridine Site); assay: Table 12 panel: Calcium Channel, Type L; assay type: binding; settings: 1.0E−6, average N=2
Text: (§1) The percentage inhibition (average; N=2) for these receptors is shown below in Table 12.
(§2) Values in Table 12 are expressed as percentage inhibition of specific binding, and these values represent the average of replicate tubes at each of the concentrations tested.

[2] = molecular target: Endothelin, ET-A (h) (Homo sapiens, UniProt P25101); assay: Table 12 panel: Endothelin, ET-A; settings: 1.0E−6, average N=2, read-out: percentage inhibition of specific binding
Text: as §1, §2

[3] = system: Sodium, Site 2; assay: Table 12 panel: Sodium, Site 2; assay type: binding; settings: 1.0E−6, average N=2
Text: as §1, §2

[4] = molecular target: T1, H1 histamine receptor (Bos taurus, UniProt P30546); assay: Histamine H1 competitive binding assay ([3H]pyrilamine); parameters: species or system bovine
T1 construct: the receptors were obtained from bovine cerebellar membrane tissue; from tissue; host or cells: bovine cerebellar membranes

[5] = molecular target: T2, M2 muscarinic receptor (Homo sapiens, UniProt P08172); assay: Muscarinic M2 binding assay; parameters: purchased PerkinElmer, Inc., Wellesley, Mass; host or cells: CHO cells
T2 sequence (P08172 1-466): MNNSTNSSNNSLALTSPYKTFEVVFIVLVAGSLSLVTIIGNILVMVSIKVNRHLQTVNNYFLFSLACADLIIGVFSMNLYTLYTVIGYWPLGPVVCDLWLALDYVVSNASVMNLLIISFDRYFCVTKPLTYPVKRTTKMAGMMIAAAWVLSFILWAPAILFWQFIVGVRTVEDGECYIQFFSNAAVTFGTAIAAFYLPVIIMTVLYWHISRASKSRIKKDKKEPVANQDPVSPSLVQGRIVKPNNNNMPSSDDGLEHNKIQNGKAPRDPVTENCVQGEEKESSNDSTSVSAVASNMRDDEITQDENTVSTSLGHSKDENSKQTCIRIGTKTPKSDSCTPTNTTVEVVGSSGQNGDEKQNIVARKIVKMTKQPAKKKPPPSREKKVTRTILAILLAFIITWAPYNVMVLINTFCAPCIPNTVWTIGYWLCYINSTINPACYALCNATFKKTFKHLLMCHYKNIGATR

[6] = molecular target: M3 muscarinic receptor (Homo sapiens, UniProt P20309); assay: Muscarinic M3 binding assay; parameters: purchased PerkinElmer, Inc., Wellesley, Mass; host or cells: CHO cells
[7] = molecular target: T3, M1 muscarinic receptor (Homo sapiens, UniProt P11229); assay: Muscarinic M1 binding assay ([3H]-scopolamine, N-methyl chloride); parameters: purchased PerkinElmer, Inc., Wellesley, Mass; host or cells: CHO cells
T3 sequence (P11229 1-460): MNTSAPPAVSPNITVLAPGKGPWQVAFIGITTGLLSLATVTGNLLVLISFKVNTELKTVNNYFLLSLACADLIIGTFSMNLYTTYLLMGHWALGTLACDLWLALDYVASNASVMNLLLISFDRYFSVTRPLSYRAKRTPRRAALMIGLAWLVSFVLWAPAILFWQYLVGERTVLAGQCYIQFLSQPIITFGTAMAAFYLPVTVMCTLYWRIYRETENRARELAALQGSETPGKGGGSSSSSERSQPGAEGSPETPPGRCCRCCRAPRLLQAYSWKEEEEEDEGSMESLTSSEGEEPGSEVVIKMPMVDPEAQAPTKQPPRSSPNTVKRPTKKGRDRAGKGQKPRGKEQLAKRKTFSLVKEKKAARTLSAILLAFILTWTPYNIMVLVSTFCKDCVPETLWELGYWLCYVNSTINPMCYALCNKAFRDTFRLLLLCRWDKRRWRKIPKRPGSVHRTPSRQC

[8] = system: Glutamate, NMDA Agonist Site; assay: Table 12 panel: Glutamate, NMDA Agonist; assay type: binding; settings: 1.0E−6, average N=2
Text: as §1, §2

[9] = system: adult male Wistar rats; assay: SCORE-2000 sleep-wakefulness, locomotor activity and body temperature monitoring; assay type: in vivo, rat
[10] = molecular target: Neurokinin, NK3 (NKB) (Homo sapiens, UniProt P29371); assay: Table 12 panel: NK3; settings: 1.0E−6, average N=2, read-out: percentage inhibition of specific binding
Text: as §1, §2

[11] = system: rat hepatocytes; assay: In vitro rate of metabolism in rat hepatocyte cultures; assay type: in vitro ADME
Method: (§3) Cytochrome P450 inhibition was studied with HY2901 in vitro. […] In addition, the in vitro rate of metabolism in rat, dog, monkey, and human hepatocyte cultures was determined for HY2901.

[12] = system: CYP 3A; assay: Cytochrome P450 inhibition: CYP 3A; assay type: in vitro ADME; settings: human microsomal preparation
Method: as §3

[13] = molecular target: hERG (Homo sapiens, UniProt Q12809); settings: human, 10 µM, pH 7.4
[14] = Protein binding in rat plasma; assay type: in vitro ADME
Method: HY2901 was administered to rats, dogs, and cynomolgus monkeys at a dose of 3 mg/kg orally and intravenously. Plasma samples were collected from all species for pharmacokinetic analysis. […] HY2901 is 75% protein bound in rat plasma and 60% protein bound in human plasma.

[15] = 1 h, read-out: percentage inhibition of specific binding

T1 sequence (P30546 whole entry): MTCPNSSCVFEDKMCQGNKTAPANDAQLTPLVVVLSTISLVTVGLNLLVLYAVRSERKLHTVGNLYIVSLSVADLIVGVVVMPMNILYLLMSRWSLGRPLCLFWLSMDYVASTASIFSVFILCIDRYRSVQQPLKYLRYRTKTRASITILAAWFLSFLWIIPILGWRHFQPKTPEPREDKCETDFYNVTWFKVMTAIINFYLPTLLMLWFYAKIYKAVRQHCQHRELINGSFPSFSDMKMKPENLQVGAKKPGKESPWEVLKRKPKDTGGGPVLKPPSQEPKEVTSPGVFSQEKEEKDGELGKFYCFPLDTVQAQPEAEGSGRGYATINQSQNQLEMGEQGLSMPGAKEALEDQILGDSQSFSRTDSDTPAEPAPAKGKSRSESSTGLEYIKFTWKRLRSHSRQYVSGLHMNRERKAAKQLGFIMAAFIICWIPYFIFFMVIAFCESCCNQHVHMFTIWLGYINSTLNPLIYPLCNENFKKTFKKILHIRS
M3 muscarinic receptor, sequence (P20309 whole entry): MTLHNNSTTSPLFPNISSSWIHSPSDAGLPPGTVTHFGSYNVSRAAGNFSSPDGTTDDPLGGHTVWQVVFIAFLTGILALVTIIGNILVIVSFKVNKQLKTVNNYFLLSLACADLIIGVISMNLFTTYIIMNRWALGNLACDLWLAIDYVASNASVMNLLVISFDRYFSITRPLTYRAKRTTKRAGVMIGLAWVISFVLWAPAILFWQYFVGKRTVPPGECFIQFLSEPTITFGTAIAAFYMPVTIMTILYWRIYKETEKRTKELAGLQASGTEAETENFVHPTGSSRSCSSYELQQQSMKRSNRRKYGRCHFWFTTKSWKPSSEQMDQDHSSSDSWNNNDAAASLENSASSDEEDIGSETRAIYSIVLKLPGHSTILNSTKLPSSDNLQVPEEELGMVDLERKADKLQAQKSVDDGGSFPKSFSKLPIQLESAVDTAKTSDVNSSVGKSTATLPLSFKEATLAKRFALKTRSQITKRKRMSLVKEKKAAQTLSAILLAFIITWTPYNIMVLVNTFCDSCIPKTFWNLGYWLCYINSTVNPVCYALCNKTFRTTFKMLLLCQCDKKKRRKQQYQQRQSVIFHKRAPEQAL
hERG, sequence (Q12809 whole entry): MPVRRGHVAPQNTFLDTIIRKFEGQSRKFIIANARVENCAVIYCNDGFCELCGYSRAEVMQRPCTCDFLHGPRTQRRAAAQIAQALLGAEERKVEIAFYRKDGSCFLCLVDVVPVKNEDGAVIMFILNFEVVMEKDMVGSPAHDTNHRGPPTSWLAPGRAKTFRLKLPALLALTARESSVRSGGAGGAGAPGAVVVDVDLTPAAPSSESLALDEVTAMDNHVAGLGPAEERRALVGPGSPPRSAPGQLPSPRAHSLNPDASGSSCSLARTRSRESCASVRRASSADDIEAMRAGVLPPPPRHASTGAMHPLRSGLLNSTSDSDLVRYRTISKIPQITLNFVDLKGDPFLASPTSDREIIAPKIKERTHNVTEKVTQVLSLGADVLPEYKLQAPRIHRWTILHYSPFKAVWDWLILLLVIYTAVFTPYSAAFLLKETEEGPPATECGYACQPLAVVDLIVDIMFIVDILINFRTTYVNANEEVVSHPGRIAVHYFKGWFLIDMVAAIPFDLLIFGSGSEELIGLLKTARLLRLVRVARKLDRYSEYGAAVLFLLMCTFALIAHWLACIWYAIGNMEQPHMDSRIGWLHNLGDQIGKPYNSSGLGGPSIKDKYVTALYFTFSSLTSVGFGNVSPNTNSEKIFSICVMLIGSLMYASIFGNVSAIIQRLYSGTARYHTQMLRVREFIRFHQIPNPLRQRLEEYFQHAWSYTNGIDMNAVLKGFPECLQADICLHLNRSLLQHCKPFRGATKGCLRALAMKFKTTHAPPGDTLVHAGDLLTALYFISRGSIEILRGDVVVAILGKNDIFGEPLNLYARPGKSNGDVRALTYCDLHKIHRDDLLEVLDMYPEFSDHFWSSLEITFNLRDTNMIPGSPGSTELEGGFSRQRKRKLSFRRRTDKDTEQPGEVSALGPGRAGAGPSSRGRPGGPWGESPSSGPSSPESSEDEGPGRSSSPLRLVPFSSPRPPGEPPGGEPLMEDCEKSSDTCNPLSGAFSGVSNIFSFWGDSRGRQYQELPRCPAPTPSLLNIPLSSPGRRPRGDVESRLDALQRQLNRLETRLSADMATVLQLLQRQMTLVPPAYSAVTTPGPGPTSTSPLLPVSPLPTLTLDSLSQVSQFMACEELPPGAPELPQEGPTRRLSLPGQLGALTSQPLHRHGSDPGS
Endothelin, ET-A (h), sequence (P25101 21-427): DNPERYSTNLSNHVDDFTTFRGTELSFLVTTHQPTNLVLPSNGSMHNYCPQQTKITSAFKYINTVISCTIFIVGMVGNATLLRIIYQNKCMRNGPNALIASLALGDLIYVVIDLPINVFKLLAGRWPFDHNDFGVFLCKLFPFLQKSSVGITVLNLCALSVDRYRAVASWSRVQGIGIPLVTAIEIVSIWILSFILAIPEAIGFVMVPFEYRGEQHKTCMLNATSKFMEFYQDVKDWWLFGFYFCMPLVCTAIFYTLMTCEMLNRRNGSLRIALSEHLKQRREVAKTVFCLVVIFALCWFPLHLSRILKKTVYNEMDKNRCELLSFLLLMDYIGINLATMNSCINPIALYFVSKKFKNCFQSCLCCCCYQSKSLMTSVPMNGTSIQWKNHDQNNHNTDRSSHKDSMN
Neurokinin, NK3 (NKB), sequence (P29371 whole entry): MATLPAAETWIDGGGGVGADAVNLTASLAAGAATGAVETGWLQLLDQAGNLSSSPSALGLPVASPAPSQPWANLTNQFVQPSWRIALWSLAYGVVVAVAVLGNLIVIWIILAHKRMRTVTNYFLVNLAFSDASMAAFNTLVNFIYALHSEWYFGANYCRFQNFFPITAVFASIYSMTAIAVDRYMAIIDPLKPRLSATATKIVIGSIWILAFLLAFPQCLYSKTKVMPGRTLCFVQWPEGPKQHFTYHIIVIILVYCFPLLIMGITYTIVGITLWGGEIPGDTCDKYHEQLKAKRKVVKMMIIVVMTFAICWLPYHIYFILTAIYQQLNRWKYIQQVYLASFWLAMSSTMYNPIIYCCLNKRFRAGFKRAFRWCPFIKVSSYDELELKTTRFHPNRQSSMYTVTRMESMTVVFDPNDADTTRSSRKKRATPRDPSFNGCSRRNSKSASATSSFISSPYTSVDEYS

## CC(CC(=O)O)N1CCC(=C2c3ccc(F)cc3COc3ccccc32)CC1 (stereo not shown) [Compound 37]
[1]
  percentage inhibition of specific binding: 5.82%
[2]
  inhibition at 1 µM: 10.2%
[3]
  percentage inhibition of specific binding: −4.12%
[4]
  IC50: 0.0675 µM
  Ki: 0.0258 µM
[4]; [15]
  inhibition at 1 µM: 93.1%
[4]; H1 binding curve (Table 13)
  Slope: −0.99
[5]
  IC50: > 10 µM
  Ki: > 10 µM
[5]; [15]
  inhibition at 1 µM: 14.6%
[6]; M3 receptor binding (Table 19)
  IC50: > 10 µM
[6]; M3 receptor binding (Table 19), read-out: Ki
  Ki: > 10 µM
[7]
  IC50: > 10 µM
  Ki: > 10 µM
[7]; [15]
  inhibition at 1 µM: 5.11%
[8]
  percentage inhibition of specific binding: −5.56%
[9]; 10 mg/kg
  REM inhibition: did not produce any REM inhibition
  body temperature: no disproportional reduction
  locomotor activity (LMA): no disproportional reduction
  rebound insomnia: did not produce any REM inhibition or rebound insomnia
[9]; 10 mg/kg PO at CT-18
  Cumulative NREM sleep time increase, adjusted for baseline and relative to vehicle: 53 min
  absolute average sleep bout: 9 min
  absolute longest sleep bout post-treatment: 18.3 min
  average sleep bout length increase, adjusted for baseline and relative to vehicle: 5.3 min
  longest sleep bout (LUSB), adjusted for baseline and relative to vehicle: 10.8 min
  peak NREM sleep time: 64 % per hour
[9]; 30 mg/kg
  body temperature: drop in body temperature occurred only at this high dose
  locomotor activity (LMA): no disproportional reduction in LMA
  rebound insomnia: No rebound insomnia was observed
[9]; 30 mg/kg PO at CT-18
  Cumulative NREM sleep time increase, adjusted for baseline and relative to vehicle: 62 min
  absolute average sleep bout: 9 min
  absolute longest sleep bout post-treatment: 25 min
  average sleep bout length increase, adjusted for baseline and relative to vehicle: 5.6 min
  longest sleep bout (LUSB), adjusted for baseline and relative to vehicle: 17.1 min
  peak NREM sleep time: 72 % per hour
[9]; 30 mg/kg at CT-18
  REM inhibition: did not produce any appreciable REM inhibition
[10]
  inhibition at 1 µM: -0.23%

## CC(C)(CN1CCC(=C2c3ccc(F)cc3COc3ccccc32)CC1)C(=O)O [Compound 49a]
[4]; read-out: Ki H1
  Ki: 0.0695 µM
[5]; read-out: Ki M2
  Ki: > 10 µM
[11]
  in vitro metabolism: extensively metabolized
[6]; read-out: Ki M3
  Ki: > 10 µM
[7]; read-out: Ki M1
  Ki: > 10 µM
[12]
  inhibition of CYP 3A activity: did not inhibit
[13]
  hERG at micromolar (% blocking of the hERG channel): 10.9 @ 10%
[9]; dose 0.3 mg/kg oral at CT-18
  LUSB: 2.8 min
  NREM: -6.6 min
[9]; dose 1 mg/kg oral at CT-18
  LUSB: 4.3 min
  NREM: 18.8 min
[9]; dose 3 mg/kg oral at CT-18
  LUSB: 11.6 min
  NREM: 37.2 min
[9]; dose 10 mg/kg oral at CT-18
  LUSB: 14.1 min
  NREM: 45.3 min
[9]; dose 30 mg/kg oral at CT-18
  LUSB: 12.9 min
  NREM: 49.1 min
[14]
  protein bound: 75%
